Reference: patent publication US12083109B2, “Neurokinin antagonists and uses thereof” (California Institute of Technology, priority 2017, dated 2024)
Entries after “also recorded” stand apart in the source; their conditions may differ.

Columns and labels:
[1] = target: T1, hM4DREADD in Tac2+ neurons (Homo sapiens, UniProt P08173, A203G/Y113C); experiment: Shock reactivity, CNO silencing of Tac2+ neurons (hM4DREADD); type: in vivo, mouse; settings: hM4DREADD in CeA
T1 construct: host or cells: Tac2+ neurons of Tac2-Cre mice (dBNSTa, DMH or CeA), transduced in vivo with AAV2-EF1a-DIO-hM4D-mCherry
T1 sequence (P08173 1-479 Y113C/A203G): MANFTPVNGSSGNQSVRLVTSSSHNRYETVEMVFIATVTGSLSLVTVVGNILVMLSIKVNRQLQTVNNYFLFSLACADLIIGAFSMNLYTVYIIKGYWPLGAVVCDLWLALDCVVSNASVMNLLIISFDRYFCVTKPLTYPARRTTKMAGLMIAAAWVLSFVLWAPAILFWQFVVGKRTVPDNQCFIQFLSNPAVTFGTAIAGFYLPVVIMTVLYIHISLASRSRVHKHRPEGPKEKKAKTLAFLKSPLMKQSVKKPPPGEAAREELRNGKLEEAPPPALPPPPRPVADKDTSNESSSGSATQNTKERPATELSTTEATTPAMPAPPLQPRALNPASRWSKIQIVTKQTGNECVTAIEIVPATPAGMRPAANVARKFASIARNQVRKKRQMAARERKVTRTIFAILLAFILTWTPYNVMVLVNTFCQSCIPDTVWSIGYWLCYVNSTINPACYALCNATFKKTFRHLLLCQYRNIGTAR
Method: The protocol for tone trace fear conditioning was performed as previously described (Cushman et al., 2014; incorporated by reference in its entirety) using fear conditioning boxes previously described in detail (Haubensak et al., 2010; Kunwar et al., 2015; incorporated by reference in their entirety). Briefly, mice were transported in squads of four on a white cart to a novel behavioral testing room containing 4 sound-attenuating fear-conditioning chambers (Med Associates). This “training context” was comprised of flat grid flooring (wired to a shock generator and scrambler for footshock delivery, Med Associates), houselights, and the presence of an internal fan for background noise. Chambers were sprayed with 70% Simple Green solution on the underlying chamber pan to generate a unique contextual scent and chambers were cleaned with 70% EtOH between squads. […] Freezing behavior during the baseline period as well as during each tone presentation (“during”) and trace interval (“post”) were assessed as previously described (Zelikowsky et al., 2014; incorporated by reference in its entirety) using automated near-infrared video tracking equipment and computer software (VideoFreeze, Med Associates). Shock reactivity (motion, arbitrary units) was measured during the 2 second shock US as well as the 3 seconds immediately following. […]

[2] = target: T2, Nk3R (Mus musculus, UniProt P47937); experiment: SIS mice: overall behavioral effects and return to group housing, osanetant; type: in vivo; parameters: from tissue; host or cells: Living mice (wild-type C57Bl6/N males, Charles River); settings: for fighting/aggression on return of SIS mice to housing with cagemates: osanetant during or during or following SIS
T2 sequence (P47937 1-452): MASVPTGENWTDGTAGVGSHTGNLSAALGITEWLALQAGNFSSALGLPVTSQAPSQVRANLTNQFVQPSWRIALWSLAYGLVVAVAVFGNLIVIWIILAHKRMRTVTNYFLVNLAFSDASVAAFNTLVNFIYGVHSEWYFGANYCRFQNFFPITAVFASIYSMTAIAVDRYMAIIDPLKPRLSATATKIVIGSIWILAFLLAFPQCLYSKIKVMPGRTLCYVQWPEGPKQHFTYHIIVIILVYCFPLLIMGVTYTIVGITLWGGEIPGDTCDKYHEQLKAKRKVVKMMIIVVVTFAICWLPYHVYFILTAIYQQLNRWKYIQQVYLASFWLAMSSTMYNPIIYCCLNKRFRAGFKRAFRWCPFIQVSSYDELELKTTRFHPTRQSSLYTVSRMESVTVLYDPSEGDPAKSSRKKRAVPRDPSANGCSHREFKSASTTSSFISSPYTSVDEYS
Excerpt: WT males (Charles River) were housed in isolation (1 animal per cage), or in groups of 3. Tac2-Cre males (bred in-house) were housed in isolation, or in groups of 2-5. Animals were isolated post-weaning, at 8-16 weeks of age. All cage conditions remained otherwise identical for group-housed mice compared to isolated animals, and mice were housed on the same rack in the same vivarium. Except as otherwise indicated, social isolation was maintained for at least 2 weeks (this period was extended in the case of surgical experiments, i.e. when adequate time for recovery and viral expression levels were required). All mice were between 12-20 weeks of age at the time of behavioral testing. We asked whether Tac2 signaling is required during the period of social isolation to observe the changes in behavior. Mice were administered osanetant daily in their home cage during the two-week social isolation period, but were then tested off-drug. To control for carry-over of the drug from the final homecage administration into the testing period (24 hrs later), an additional group of mice was subjected to two weeks of SIS without drug, and given a single home-cage administration of osanetant 24 hours prior to testing (FIG. 3G).

| behavioral effects of 2 weeks of social isolation stress (overall) ([2]; mice) | fighting/aggression on return of SIS mice to housing with cagemates [2] | fighting/aggression on return of SIS mice to housing with cagemates ([2]; listed as Osanetant) | Structure (SMILES) | SIS-enhanced shock reactivity [1] |
| --- | --- | --- | --- | --- |
| – | – | – | C[N+]1([O-])CCN(C2=Nc3cc(Cl)ccc3Nc3ccccc32)CC1 [CNO, clozapine-N-oxide] | suppressed; also recorded: attenuated |
| protects and prevents | without any subsequent fighting observed | prevents aggression | CC(=O)N(C)C1(c2ccccc2)CCN(CCC[C@]2(c3ccc(Cl)c(Cl)c3)CCCN(C(=O)c3ccccc3)C2)CC1 [osanetant, N-(1-{3-[(3R)-1-benzoyl-3-(3,4-dichlorophenyl)piperidin-3-yl]propyl}-4-phenylpiperidin-4-yl)-N-methylacetamide] | – |
